# Primed or numbered codes have the meaning given here. No end group written: not given here. FITC′ = not defined here
# Assays:
# [1] = test system: exosome release of A549 cells; assay: inhibition of exosome release, western blotting of exosome markers; type: cell-based, human; details: 10 μM compared to 2.5 and 5 μM
# Description: In order to further identify the binding specificity of ExoPep to exosomes, GW4869 ([…], Sigma-Aldrich), a drug that inhibits the release of exosome out of cells, was treated to cells at various concentrations (2.5, 5, and 10 μM). Thereafter, exosomes were isolated, and electrophoresis and western blotting with antibodies against CD63, Alix, Tsg101, and calnexin (Abcam) were performed in the same manner as described in FIG. 1.
# [2] = test system: A549 cells; assay: cell viability CCK-8 assay with GW4869; type: cell-based, human; details: various concentrations, 3 hours serum-free then 24 hours
# [3] = test system: A549 cells; assay: internalization of exosomes and ExoPep after GW4869, immunofluorescence staining; type: cell-based, human; details: 10 μM GW4869
# Description: Based on the above results, using 10 μM GW4869 inhibitor, the binding of the ExoPep peptide to the exosomes and internalization thereof were analyzed.
# [4] = test system: A549 tumor nude mouse model; assay: co-administration of doxorubicin and ExoPep-KLA in the A549 tumor nude mouse model; type: in vivo
# Description: In the A549 tumor nude mouse model, ExoPep-KLA peptide was administered three times a week at the indicated time points, and doxorubicin was administered once a week for three weeks. The timing of single and co-administration was shown in the treatment protocol (FIG. 16A).
# [5] = test system: A549 tumor nude mouse model; assay: anticancer effect in the A549 tumor nude mouse model; type: in vivo
# Description: To test anticancer effect using ExoPep-KLA in the A549 tumor nude mouse model, ExoPep-KLA peptides were pre-reacted with exosomes either alone or in vitro and then systemically administered intravenously for 3 weeks at the time points indicated in the protocol, and doxorubicin was administered once a week for 3 weeks (FIG. 14A).
# [6] = test system: A549 tumor mouse blood-derived exosome; assay: flow cytometry binding of FITC-labeled ExoPep to blood-derived exosomes; details: FITC-labeled peptide, CD63 antibody beads
# Description: A549 cells were injected into BALB/c nude mice, blood was collected after the tumor grew, and exosomes were isolated using an exosome isolation kit. To measure the binding of the peptide to the exosomes by flow cytometry, the exosomes were labeled with CD63 antibody beads. As a control group, exosomes isolated from the blood of normal mice were used. The exosome-bead complex labeled with CD63 beads was blocked by a reaction with 1% BSA/PBS at room temperature for 30 minutes to reduce non-specific binding. After washing, the FITC-labeled ExoPep peptides were bound to the exosome-bead complex at 4° C. for 30 minutes. After washing again with PBS, the binding of the peptide to the exosome-bead complex was analyzed using a flow cytometer (ThermoFisher Scientific, USA) (FIG. 7A).
# [7] = test system: exosomes derived from HT-29 colorectal cancer cells; assay: flow cytometry binding of FITC-labeled peptide to exosomes; details: 4° C.
# Description: (§1) 5 types of peptides (CTDTKIK, CRLSKKS, CRKVAKG, CRKRPAL, CAVRRKL) were synthesized based on the result of ELISA shown in FIG. 3. In order to investigate the binding of candidate peptides by FACS method, a peptide in which fluorescein isothiocyanate (FITC), a fluorescent substance, is conjugated to the carboxy terminus was synthesized by requesting Peptron Co. (Daegeon, Korea). Each peptide was synthesized by standard Fmoc method and purified by […]. In addition, FITC-labeled NSSSVDK peptide was used as a control.
# (§2) In order to observe the peptide binding to the exosomes, biotin and exosomes were first combined in the same manner as described in FIG. 3, and then the exosomes were immobilized by binding with avidin beads. The exosome-bead complex was blocked for non-specific binding through treatment of 1% bovine serum albumin (BSA) dissolved in phosphate buffer for 30 minutes at room temperature. After washing, the FITC-labeled peptide was bound to the exosome-bead complex at 4° C. for 30 minutes. After the reaction, the binding of the peptide to the exosomes was analyzed using a flow cytometer.
# (§3) On the other hand, in order to observe the peptide binding to the exosome-producing cells, 1×10^6 cells were first prepared. Each cell medium was treated with 1% BSA at 37° C. for 30 minutes. Thereafter, the FITC-labeled peptide was bound at 4° C. for 1 hour. After the reaction, the binding of the peptide to the cells was analyzed using a flow cytometer.
# [8] = test system: exosomes derived from Panc-1 pancreatic cancer cells; assay: as above; details: 4° C.
# Description: as §1, §2, §3
# [9] = test system: exosomes derived from normal HEK293 cells; assay: as above; details: 4° C.
# Description: as §1, §2, §3
# [10] = test system: exosomes derived from MDA-MB231 breast cancer cells; assay: as above; details: 4° C.
# Description: as §1, §2, §3
# [11] = test system: exosomes derived from normal MCF10A cells; assay: as above; details: 4° C.
# Description: as §1, §2, §3
# [12] = test system: exosomes derived from HepG2 liver cancer cells; assay: as above; details: 4° C.
# Description: as §1, §2, §3
# [13] = test system: exosomes derived from LLC mouse lung cancer cells; assay: as above; details: 4° C.
# Description: as §1, §2, §3
# [14] = test system: exosomes derived from H460 lung cancer cells; assay: as above; details: 4° C.
# Description: as §1, §2, §3
# [15] = test system: A549 tumor mice; assay: in vivo distribution imaging of DiD-labeled exosomes with or without ExoPep; design: species or system mouse; details: without exosomes
# Description: DiD-labeled A549 tumor mouse blood-derived exosomes and A549 cell-derived exosomes were reacted with ExoPep peptide, and image monitoring was performed for in vivo distribution. Tumor xenograft mice were prepared by subcutaneously implanting A549 cell suspension (5×10^6 cells) along with PBS into the right flank of 5-week-old female BALB/c nude mice. When the tumor size reached a volume of approximately 100-200 mm^3, the mice were anesthetized. A549 tumor mice was intravenously administered with DiD-labeled A549 tumor mouse blood-derived exosomes (mEXO) and a product obtained by reacting the exosomes (mEXO) with peptides (mEXO+ExoPep, n=3) as well as DiD-labeled A549 cell-derived exosomes (cEXO) and a product obtained by reacting the exosomes (cEXO) with peptides (cEXO+ExoPep, n=3). The inventors of the present disclosure used FITC-labeled control peptide and ExoPep (n=3) as controls. In vivo fluorescence images were analyzed using an IVIS imaging system (Caliper Life Sciences, Massachusetts, USA) at various time points (2, 4, 8, and 24 hours, respectively) after administration of DiD-labeled exosomes. In vitro fluorescence images of excised tumors and organs were collected 24 hours after administration. All major organs (liver, kidney, spleen, heart, and lung) having tumor tissues were separated, washed with PBS, and subjected to in vitro fluorescence analysis (n=3).
# [16] = test system: exosomes derived from normal HEK293 cells; assay: inhibition of exosome internalization by magnetic removal of peptide-bound exosomes; type: cell-based; details: exosomes pretreated with biotin-labeled peptide, then removed with magnet
# Description: (§4) In order to further identify the binding specificity of the ExoPep peptide to the A549 cell-derived exosome, the exosomes were labeled with a DID fluorescent dye, reacted with the biotin-labeled ExoPep peptide, and then conjugated with biotin by reacting the labeled avidin with magnetic particles. The complex of exosomes/biotin-peptide/avidin-magnetic particles prepared by the reaction was captured and removed using a magnet, and the remaining exosomes were treated to recipient cells (FIG. 5A).
# On the other hand, internalization of exosomes into recipient cells was not reduced by pretreatment with the control peptide (sequence: NSSSVDK) (FIG. 5B). In addition, when a similar experiment was conducted on exosomes derived from normal HEK293 cells, the internalization of exosomes into recipient cells was not inhibited by the ExoPep peptide of an example embodiment of the present disclosure as well as the control peptide (FIG. 5C).
# [17] = test system: exosomes derived from normal HEK293 cells / HEK293 cells; assay: confocal microscopy of peptide internalization with exosomes; type: cell-based; details: same manner
# Description: (§5) Media of A549, HEK293, and MDA-MB231 cells were collected, exosomes were isolated through ultracentrifugation, and exosomes were labeled with DiD fluorescence reagent (red), followed by a reaction with ExoPep peptide (FITC label, green). After the reaction, the cells were immobilized, and the nuclei were stained with DAPI (blue) to analyze with confocal microscopy. More specifically, the isolated exosomes and DiD (1:200 dilution) were reacted on a stirrer at 37° C. for 30 minutes. After adding Exoquick reagent, condition was maintained at 4° C. for 30 minutes, and then DiD-labeled exosomes were precipitated by centrifugation at 13000 rpm for 3 minutes. Thereafter, a mixture of 10 uM FITC-conjugated peptide and DiD-labeled exosomes was reacted with A549 cells at 37° C. for 1 hour. After washing three times, immobilization was performed using 2% paraformaldehyde (PFA). After washing again, cells were treated with 4′-6-diamidino-2-phenylindole (DAPI) for nucleus staining. Finally, after mounting, observation was followed using a confocal microscope (Zeiss, Oberkochen, Germany).
# On the other hand, the exosomes derived from normal HEK293 cells were treated in the same manner as described above and observed under a confocal microscope (Zeiss, Oberkochen, Germany).
# [18] = test system: recipient cell A549; assay: internalization of peptide with blood-derived exosomes into cells; type: cell-based, human; details: DiD-labeled exosomes, FITC-labeled peptide
# Description: In order to observe internalization of peptides into cells, exosomes were labeled with DiD, reacted with FITC-labeled peptides, and treated to A549 cells. Cells were immobilized with 4% paraformaldehyde for 5 minutes and stained with DAPI, followed by observation under a microscope.
# [19] = test system: exosomes derived from A549 lung cancer cells; assay: flow cytometry binding of FITC-labeled peptide to exosomes; design: species or system human; details: 4° C.
# Description: as §1, §2
# On the other hand, in order to observe the peptide binding to the exosome-producing cells, 1×10^6 cells were first prepared. […] After the reaction, the binding of the peptide to the cells was analyzed using a flow cytometer.
# [20] = test system: red blood cells; assay: in vitro hemolysis assay; type: cell-based; details: various concentrations up to a final concentration of 200 μM, 37° C., 1 hour
# Description: Next, an in vitro hemolysis assay was performed. In vitro hemolysis assay, as an indicator of hemolysis of red blood cells after exposure to a drug or an agent, was conducted by measuring the hemoglobin release in plasma. This is an accurate, sensitive method to predict the hemolytic activity of a drug. Fresh blood was centrifuged at 500×g for 10 minutes, and the pellet of red blood cells was washed 3 times and re-suspended in 10 mM PBS in pH 7.4. Equal volumes of red blood cells were reacted with various concentrations of ExoPep peptide by stirring at 37° C. for 1 hour. The samples were then centrifuged at 4° C. at 500×g for 10 minutes. RBC lysis was measured by analyzing absorbance at OD 540 nm depending on the concentration of different peptides. […] The hemolytic activity of the peptide was calculated in a percentage using the following equation.
# H=100×(OP−OB)/(OT−OB) Equation:
# In the equation above, OP, OB, and OT represent optical density of the peptide solution at an indicated concentration, optical density of a buffer, and optical density of Triton X 100, respectively.
# [21] = test system: A549 cell-derived exosome / A549 cells; assay: confocal microscopy of peptide internalization with exosomes; type: cell-based, human; details: 10 uM FITC-conjugated peptide, DiD-labeled exosomes, 37° C., 1 hour
# Description: as §5
# [22] = test system: MDA-MB231 cell-derived exosome / MDA-MB231 cells; assay: confocal microscopy of peptide internalization with CD63-GFP exosomes; type: cell-based; details: 10 uM TAMARA-conjugated peptide, 37° C., 1 hour
# Description: In addition, an experiment was performed on exosomes derived from MDA-MB231 cells which were prepared to secrete exosomes showing green fluorescence by expressing CD63-GFP. GFP exosomes (green) and 10 uM TAMARA-conjugated peptide (red) were reacted with MDA-MB231 cells at 37° C. for 1 hour. Thereafter, after performing immobilization, DAPI nucleus staining, and mounting as described above, observation was followed using a confocal microscope (Zeiss, Oberkochen, Germany).
# [23] = test system: A549 cell-derived exosomes; assay: inhibition of exosome internalization by magnetic removal of peptide-bound exosomes; type: cell-based, human; details: exosomes pretreated with biotin-labeled peptide, then removed with magnet
# Description: as §4
molecule,measurement,setting,value
O=C(/C=C/c1ccc(/C=C/C(=O)Nc2ccc(C3=NCCN3)cc2)cc1)Nc1ccc(C2=NCCN2)cc1 [GW4869],"exosome markers such as CD63, Alix, and Tsg101",[1],greatly reduced
same,cytotoxicity (CCK-8),[2],did not show toxicity even at high concentration
same,internalization of exosomes and peptides bound therewith,[3],significantly reduced
COc1cccc2c1C(=O)c1c(O)c3c(c(O)c1C2=O)C[C@@](O)(C(=O)CO)C[C@@H]3O[C@H]1C[C@H](N)[C@H](O)[C@H](C)O1 [doxorubicin],size of tumor,"[4]; 2.5 mg/kg, compared to phosphate buffer",slightly reduced
same,size of tumor,[4]; 5 mg/kg,more strongly inhibited
same,metastatic nodules and microscopic nodules,"[4]; 5 mg/kg, compared to buffer",significantly reduced
same,tumor growth,"[5]; intravenous, 3 weeks",significantly inhibited
same,weight of tumor,"[5]; mouse, in vivo",reduced
CRKVAKG [ExoPep],binding to tumor mouse blood-derived exosome versus normal mouse blood-derived exosome,[6],bound better
same,binding to exosomes compared to exosome-producing cell,[7],"very low binding, or no higher binding"
same,binding to exosomes compared to exosome-producing cell,[8],higher binding
same,binding to exosomes compared to exosome-producing cell,[9],"very low binding, or no higher binding"
same,binding to exosomes compared to exosome-producing cell,[10],higher binding
same,binding to exosomes compared to exosome-producing cell,[11],"very low binding, or no higher binding"
same,binding to exosomes compared to exosome-producing cell,[12],"very low binding, or no higher binding"
same,binding to exosomes compared to exosome-producing cell,[13],"very low binding, or no higher binding"
same,binding to exosomes compared to exosome-producing cell,[14],higher binding
same,fluorescence signal of FITC-labeled peptide itself,[15],low signals
same,internalization of exosomes into recipient cells,[16],not inhibited
same,peptide observed in cells (internalization with exosomes),[17],not observed in the cells
same,"internalization into recipient cell, tumor versus normal mouse blood-derived exosome",[18],internalized more
same,binding to exosomes compared to exosome-producing cell,[19],higher binding
same,hemolytic activity,[20],only low levels of hemolytic activity
same,peptide observed in cells (internalization with exosomes),[21],observed along with the exosomes in A549 cells
same,peptide observed in cells (internalization with exosomes),[22],more of which were observed in the cells than the control peptide
same,internalization of exosomes into recipient cells,[23],significantly inhibited
"NSSSVDK (NSSSVDK-{FITC′}) [control peptide, reference compound]",fluorescence signal of FITC-labeled peptide itself,[15],low signals
same,internalization of exosomes into recipient cells,[16],not inhibited
same,peptide observed in cells (internalization with exosomes),[17],not observed in the cells
same,peptide observed in cells (internalization with exosomes),[21],not observed
same,internalization of exosomes into recipient cells,[23],not reduced
